Test results from patent US20250250264A1, “KIF18A INHIBITOR AND USE THEREOF” (Wuhan Humanwell Innovative Drug Research and Development …, priority 2022, published 2025).
Where two headings read alike, the source gives them in different places.

Legend:
NIH:OVCAR-3 cells = test: Assay on inhibition of OVCAR3 tumor cell proliferation (CellTiter-Glo); type: cell-based; settings: 3 days of drug treatment, read-out: IC50 (μM), inhibitory effects of compounds on tumor cell proliferation
Procedure: NIH:OVCAR-3 cells (ATCC, Cat No. HTB-161, purchased from Co-Bier) were seeded into a T75 culture flask and cultured in an RPMI 1640 medium containing 20% FBS for 3 days in preparation for subsequent culturing and seeding into a 96-well plate for the cell proliferation assay.
The OVCAR3 cells were seeded at a density of 3000 cells/100 μL/well into the 96-well cell plate, and then the plate was incubated in an incubator (37° C., 5% CO2) for 18 h. On the second day, drug treatment was started. Serially diluted test compound solutions (each drug starting at a concentration of 10 μM, diluted in DMSO, with a dilution ratio of 1:3, and nine gradient points for each drug) or DMSO (negative control) was added to the medium in the plate at 100 μL/well, and a blank group was set up with only medium, but no seeded cell strains. After the drug addition, the plate was incubated in the incubator for another 3 days (37° C., 5% CO2). On the fourth day, plate detection was performed. To each well, 100 μL of CellTiter-Glo reagent (Promega G9243) was added. The plate was shaken for 5 min and then left to stand at room temperature for 5 min. The chemical luminescence signal value of each well was determined using a microplate reader (PerkinElmer EnVision®2104). Cell proliferation inhibition rate=(1−(compound group−blank group)/(DMSO group−blank group))×100%. Then, the IC50 value of each compound was calculated using the GraphPad Prism 8 software.

[1] = target: recombinant protein KIF18A (kinesin domain: aa 1-467) (Homo sapiens (Human), UniProt Q8NI77); test: Assay on inhibition of KIF18A enzymatic activity (ADP-Glo); type: biochemical; settings: KIF18A 80 nM, ATP 80 μM, 3 h at room temperature, ADP-Glo luminescence; read-out: IC50 (μM), inhibitory effects of compounds on KIF18A enzymatic activity
recombinant protein KIF18A (kinesin domain: aa 1-467), sequence (Q8NI77 1-467): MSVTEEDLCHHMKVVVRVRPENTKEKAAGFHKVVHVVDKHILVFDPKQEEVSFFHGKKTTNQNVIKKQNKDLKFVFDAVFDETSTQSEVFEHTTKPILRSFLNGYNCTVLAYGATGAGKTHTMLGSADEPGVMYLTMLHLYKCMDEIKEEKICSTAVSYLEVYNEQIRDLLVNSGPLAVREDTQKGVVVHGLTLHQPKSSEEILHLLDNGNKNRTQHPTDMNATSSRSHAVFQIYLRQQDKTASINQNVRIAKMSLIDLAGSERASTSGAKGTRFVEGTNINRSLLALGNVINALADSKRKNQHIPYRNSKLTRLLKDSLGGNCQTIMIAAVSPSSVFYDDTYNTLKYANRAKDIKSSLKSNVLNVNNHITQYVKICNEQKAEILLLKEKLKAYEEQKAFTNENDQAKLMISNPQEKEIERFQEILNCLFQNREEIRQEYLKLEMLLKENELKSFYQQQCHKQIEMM
recombinant protein KIF18A (kinesin domain: aa 1-467), sequence (P02550 whole entry partner, the tested form may be a part): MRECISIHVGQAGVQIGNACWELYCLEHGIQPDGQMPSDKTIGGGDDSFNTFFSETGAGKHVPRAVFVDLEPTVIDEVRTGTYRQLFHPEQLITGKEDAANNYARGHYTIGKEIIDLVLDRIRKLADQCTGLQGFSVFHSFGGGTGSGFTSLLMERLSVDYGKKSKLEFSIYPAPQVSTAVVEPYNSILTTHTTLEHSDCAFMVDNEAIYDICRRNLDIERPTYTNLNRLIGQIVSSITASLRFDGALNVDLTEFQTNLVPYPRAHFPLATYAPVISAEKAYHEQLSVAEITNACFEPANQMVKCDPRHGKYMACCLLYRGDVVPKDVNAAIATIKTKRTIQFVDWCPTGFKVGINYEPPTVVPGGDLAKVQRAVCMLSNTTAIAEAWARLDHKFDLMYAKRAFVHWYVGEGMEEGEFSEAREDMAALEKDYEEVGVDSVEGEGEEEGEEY
recombinant protein KIF18A (kinesin domain: aa 1-467), sequence (P02554 whole entry partner, the tested form may be a part): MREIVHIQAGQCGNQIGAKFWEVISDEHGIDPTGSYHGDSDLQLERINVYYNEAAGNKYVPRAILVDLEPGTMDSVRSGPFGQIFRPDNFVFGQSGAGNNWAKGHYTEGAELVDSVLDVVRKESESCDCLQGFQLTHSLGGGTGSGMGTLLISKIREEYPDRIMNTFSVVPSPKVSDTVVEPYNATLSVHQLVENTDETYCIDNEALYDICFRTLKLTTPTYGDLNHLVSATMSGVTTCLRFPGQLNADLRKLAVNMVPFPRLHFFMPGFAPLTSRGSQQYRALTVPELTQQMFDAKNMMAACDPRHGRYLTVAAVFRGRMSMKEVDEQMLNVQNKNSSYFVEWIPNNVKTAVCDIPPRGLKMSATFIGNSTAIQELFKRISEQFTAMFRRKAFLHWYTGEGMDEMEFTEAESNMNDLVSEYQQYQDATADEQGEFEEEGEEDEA
Excerpt: The recombinant protein KIF18A (kinesin domain: aa 1-467) used in this assay was expressed by the Bac-to-Bac baculovirus expression system from Invitrogen, and the resulting protein was purified for use in this assay (Seki, M. et al. 2003 Nucleic Acids Res.). Quantitative detection of KIF18A enzymatic activity was completed using an ADP-Glo™ kinase assay kit (Promega Inc). Related procedures strictly followed the product instructions, which are briefly described as follows:
The reaction system consisted of a test compound, the recombinant protein KIF18A (aa 1-467), ATP (Promega Inc), and an assay buffer. The test compound was prepared into a 0.5 mM stock solution using DMSO (Sigma Inc) and then serially diluted in DMSO. The assay buffer consisted of an aqueous solution of 15 mM Tris, 10 mM MgCl2 (Sigma Inc), 0.01% Pluronic F-68 (Life Technologies Inc), 1 μM paclitaxel (Cytoskeleton Inc), 30 μg/mL porcine tubulin (Cytoskeleton Inc), and 2% DMSO. The KIF18A protein (final concentration: 80 nM) and the compound at different concentrations (1 μL) were added to the prepared assay buffer (50 μL), and the mixture was incubated at room temperature for 15 min. Then, ATP (final concentration: 80 μM) was added to the reaction mixture, and the resulting mixture was incubated at room temperature for 3 h. After the reaction was completed, 5 μL of the ADP-Glo™ reagent and 2.5 μL of the reaction mixture were added to a 384-well plate (Grenier Inc). The resulting mixture was mixed homogeneously, then sealed by an aluminum foil sealing film, and incubated at room temperature in the dark for 40 min. Finally, 10 μL of the […] was added to each reaction well, and the mixture was incubated at room temperature in the dark for 40 min. After all reactions were completed, the luminescence values of the wells were read on a microplate reader (Molecular Device_SpectraMax Id5), and the inhibition ratios were calculated. The calculation formula for the inhibition rates was as follows: inhibition rate=(1−(compound group−blank group)/(negative control group−blank group))×100%. Then, based on the inhibition rates at different compound concentrations, the IC50 value of the test compound was calculated using the GraphPad Prism 8 software.

| IC50 (NIH:OVCAR-3 cells; Homo sapiens, OVCAR-3, 72 h) [µM] | IC50 [1] [µM] | IC50 (NIH:OVCAR-3 cells) [µM] | SMILES |
| --- | --- | --- | --- |
| 0.205 |  |  | Cc1cc(-c2nnc(-c3ccc(NS(=O)(=O)CCO)cc3N3CCC4(CC3)CC4)s2)nc(OCCC(F)(F)F)n1 [Example I-99, N-(4-(5-(6-Methyl-2-(3,3,3-trifluoropropoxy)pyrimidin-4-yl)-1,3,4-thiadiazol-2-yl)-3-(6-azaspiro[2.5]octan-6-yl)phenyl)-2-hydroxyethane-1-sulfonamide] |
| 0.038 | 0.004 |  | Cc1cc(-c2cn(-c3ccc(NS(=O)(=O)CCO)cc3N3CCC4(CC3)CC4)nn2)nc(N2CCC(F)(F)CC2)n1 [Example I-79, N-(4-(4-(2-(4,4-Difluoropiperidin-1-yl)-6-methylpyrimidin-4-yl)-1H-1,2,3-triazol-1-yl)-3-(6-azaspiro[2.5]octan-6-yl)phenyl)-2-hydroxyethane-1-sulfonamide] |
| 0.066 | 0.005 |  | O=S(=O)(CCO)Nc1ccc(-n2cc(-c3ccnc(N4CCC(F)(F)CC4)n3)cn2)c(N2CCC3(CC2)CC3)c1 [Example I-109, N-(4-(4-(2-(4,4-Difluoropiperidin-1-yl)pyrimidin-4-yl)-1H-pyrazol-1-yl)-3-(6-azaspiro[2.5]octan-6-yl)phenyl)-2-hydroxyethane-1-sulfonamide] |
| 0.167 | 0.005 |  | Cc1cc(-c2cnn(-c3ccc(NS(=O)(=O)CCO)cc3N3CCC4(CC3)CC4)c2)nc(OCCC(F)(F)F)n1 [Example I-115, N-(4-(4-(6-Methyl-2-(3,3,3-trifluoropropoxy)pyrimidin-4-yl)-1H-pyrazol-1-yl)-3-(6-azaspiro[2.5]octan-6-yl)phenyl)-2-hydroxyethane-1-sulfonamide] |
| 0.073 | 0.001 |  | Cc1cc(-c2nnc(-c3ccc(NS(=O)(=O)CCO)cc3N3CCC4(CC3)CC4)o2)nc(N2CCCC(F)(F)C2)n1 [Example I-7, N-(4-(5-(2-(3,3-Difluoropiperidin-1-yl)-6-methylpyrimidin-4-yl)-1,3,4-oxadiazol-2-yl)-3-(6-azaspiro[2.5]octan-6-yl)phenyl)-2-hydroxyethane-1-sulfonamide] |
| 0.073 | 0.005 |  | Cc1cc(-c2cnn(-c3ccc(NS(=O)(=O)[C@H](C)CO)cc3N3CCC4(CC3)CC4)c2)nc(N2CCC(F)(F)CC2)n1 [Example I-111, (R)—N-(4-(4-(2-(4,4-Difluoropiperidin-1-yl)-6-methylpyrimidin-4-yl)-1H-pyrazol-1-yl)-3-(6-azaspiro[2.5]octan-6-yl)phenyl)-1-hydroxypropane-2-sulfonamide] |
| 0.389 | 0.013 |  | Cc1cc(-c2cnn(-c3ccc(NS(=O)(=O)CCO)cc3N3CCC4(CC3)CC4)c2)nc(N2CCCC2)n1 [Example I-116, N-(4-(4-(6-Methyl-2-(pyrrolidin-1-yl)pyrimidin-4-yl)-1H-pyrazol-1-yl)-3-(6-azaspiro[2.5]octan-6-yl)phenyl)-2-hydroxyethane-1-sulfonamide] |
| 0.184 | 0.002 |  | Cc1cc(-c2cnn(-c3ccc(NS(=O)(=O)CCO)cc3N3CCC4(CC3)CC4)c2)nc(N2CCCC(F)(F)C2)n1 [Example I-118, N-(4-(4-(2-(3,3-Difluoropiperidin-1-yl)-6-methylpyrimidin-4-yl)-1H-pyrazol-1-yl)-3-(6-azaspiro[2.5]octan-6-yl)phenyl)-2-hydroxyethane-1-sulfonamide] |
| 0.08 | 0.002 |  | Cc1cc(-c2nnc(-c3ccc(NS(=O)(=O)CCO)cc3N3CCC4(CC3)CC4)o2)nc(N2CCC(F)(F)CC2)n1 [Example I-2, N-(4-(5-(2-(4,4-Difluoropiperidin-1-yl)-6-methylpyrimidin-4-yl)-1,3,4-oxadiazol-2-yl)-3-(6-azaspiro[2.5]octan-6-yl)phenyl)-2-hydroxyethane-1-sulfonamide] |
| 0.186 | 0.007 |  | Cc1cc(-c2nnc(-c3ccc(NS(=O)(=O)CCO)cc3N3CCC4(CC3)CC4)o2)nc(N2CCC(F)(F)C2)n1 [Example I-5, N-(4-(5-(2-(3,3-Difluoropyrrolidin-1-yl)-6-methylpyrimidin-4-yl)-1,3,4-oxadiazol-2-yl)-3-(6-azaspiro[2.5]octan-6-yl)phenyl)-2-hydroxyethane-1-sulfonamide] |
|  | 0.001 | 0.045 | Cc1cc(-c2nnc(-c3ccc(NS(=O)(=O)CCO)cc3N3CCC4(CC3)CC4)o2)cc(N2CCC(F)(F)CC2)n1 [Example I-52, N-(4-(5-(2-(4,4-Difluoropiperidin-1-yl)-6-methylpyridin-4-yl)-1,3,4-oxadiazol-2-yl)-3-(6-azaspiro[2.5]octan-6-yl)phenyl)-2-hydroxyethane-1-sulfonamide] |
| 0.393 |  |  | Cc1cc(-n2cc(-c3ccc(NS(=O)(=O)CCO)cc3N3CCC4(CC3)CC4)cn2)nc(N2CCC(F)(F)CC2)n1 [Example I-81, N-(4-(1-(2-(4,4-Difluoropiperidin-1-yl)-6-methylpyrimidin-4-yl)-1H-pyrazol-4-yl)-3-(6-azaspiro[2.5]octan-6-yl)phenyl)-2-hydroxyethane-1-sulfonamide] |
| 0.051 | 0.011 |  | Cc1cc(-c2nnc(-c3ccc(NS(=O)(=O)CCO)cc3N3CCC4(CC3)CC4)o2)nc(N2CC(F)(F)C2)n1 [Example I-3, N-(4-(5-(2-(3,3-Difluoroazetidin-1-yl)-6-methylpyrimidin-4-yl)-1,3,4-oxadiazol-2-yl)-3-(6-azaspiro[2.5]octan-6-yl)phenyl)-2-hydroxyethane-1-sulfonamide] |
|  | 0.013 |  | Cc1cc(-c2nnc(-c3ccc(NS(=O)(=O)CCO)cc3N3CCC4(CC3)CC4)o2)nc(N2CCC(C(F)(F)F)C2)c1 (stereo not shown) [Example I-104, N-(4-(5-(4-Methyl-6-(3-(trifluoromethyl)pyrrolidin-1-yl)pyridin-2-yl)-1,3,4-oxadiazol-2-yl)-3-(6-azaspiro[2.5]octan-6-yl)phenyl)-2-hydroxyethane-1-sulfonamide] |
| 0.045 | 0.033 |  | Cc1cc(-c2nnc(-c3ccc(NS(=O)(=O)CCO)cc3N3CCC4(CC3)CC4)o2)nc(N2CCO[C@H](C)C2)c1 [Example I-1, (R)-2-Hydroxy-N-(4-(5-(4-methyl-6-(2-methylmorpholino)pyridin-2-yl)-1,3,4-oxadiazol-2-yl)-3-(6-azaspiro[2.5]octan-6-yl)phenyl)ethane-1-sulfonamide] |
|  | 0.012 |  | Cc1cc(-c2nnc(-c3ccc(NS(=O)(=O)CCO)cc3N3CCC4(CC3)CC4)o2)nc(N2CCCC(C(F)(F)F)C2)c1 (stereo not shown) [Example I-103, N-(4-(5-(4-Methyl-6-(3-(trifluoromethyl)piperidin-1-yl)pyridin-2-yl)-1,3,4-oxadiazol-2-yl)-3-(6-azaspiro[2.5]octan-6-yl)phenyl)-2-hydroxyethane-1-sulfonamide] |
| 0.214 |  |  | Cc1cc(-c2nnc(-c3ccc(NS(=O)(=O)CCO)cc3N3CCC4(CC3)CC4)o2)c(F)c(N2CCC(F)(F)CC2)n1 [Example I-53] |
|  | 0.018 |  | Cc1cc(-c2nnc(-c3ccc(NS(=O)(=O)CCO)cc3N3CCC4(CC3)CC4)o2)nc(N2CCC(C(F)(F)F)C2)n1 (stereo not shown) [Example I-98, N-(4-(5-(6-methyl-2-(3-(trifluoromethyl)pyrrolidin-1-yl)pyrimidin-4-yl)-1,3,4-oxadiazol-2-yl)-3-(6-azaspiro [2.5]octan-6-yl)phenyl)-2-hydroxyethane-sulfonamide] |
|  | 0.005 |  | Cc1cc(-c2cnn(-c3ccc(NS(=O)(=O)CCO)cc3N3CCC(C)CC3)c2)nc(N2CCC(F)(F)CC2)n1 [Example I-125, N-(4-(4-(2-(4,4-Difluoropiperidin-1-yl)-6-methylpyrimidin-4-yl)-1H-pyrazol-1-yl)-3-(4-methylpiperidin-1-yl)phenyl)-2-hydroxyethane-1-sulfonamide] |
